In brackets after ≈: the same amount, converted by molar mass.
Legend:
Escherichia coli [1] = assay: Antimicrobial activity against Escherichia coli ATCC 25922 incubated for 18 to 24 hrs by disk diffusion method; assay type: functional
Pseudomonas aeruginosa [2] = assay: Antimicrobial activity against Pseudomonas aeruginosa ATCC 27853 incubated for 18 to 24 hrs by disk diffusion method; assay type: functional
Staphylococcus aureus [3] = assay: Antimicrobial activity against Staphylococcus aureus ATCC 25923 incubated for 18 to 24 hrs by disk diffusion method; assay type: functional
Bacillus subtilis = assay: Antimicrobial activity against Bacillus subtilis 10B incubated for 18 to 24 hrs by disk diffusion method; assay type: functional
Escherichia coli [4] = assay: Antimicrobial activity against Escherichia coli ATCC 25922 incubated for 18 to 24 hrs; assay type: functional
[5] = system: Staphylococcus epidermidis; assay: Antimicrobial activity against methicillin-resistant Staphylococcus epidermidis 12-1 incubated for 18 to 24 hrs; assay type: functional
Pseudomonas aeruginosa [6] = assay: Antimicrobial activity against Pseudomonas aeruginosa ATCC 12-12 incubated for 18 to 24 hrs; assay type: functional
Staphylococcus aureus [7] = assay: Antimicrobial activity against methicillin-resistant Staphylococcus aureus ATCC 12-1 incubated for 18 to 24 hrs; assay type: functional
Staphylococcus aureus [8] = assay: Antimicrobial activity against Staphylococcus aureus ATCC 25923 incubated for 18 to 24 hrs; assay type: functional
Escherichia coli [9] = assay: Antimicrobial activity against Escherichia coli ATCC 8739 by agar dilution method; assay type: functional
Staphylococcus aureus [10] = assay: Antimicrobial activity against Staphylococcus aureus ATCC 6538 by agar dilution method; assay type: functional
Pseudomonas aeruginosa [11] = assay: Antimicrobial activity against Pseudomonas aeruginosa ATCC 9027 by agar well diffusion method; assay type: functional
Klebsiella pneumoniae = assay: Antimicrobial activity against Klebsiella pneumoniae ATCC 29522 incubated for 16 hrs by CLSI-based agar dilution method; assay type: functional; conditions: ATCC 29522, 16 h
Staphylococcus aureus [12] = assay: Antimicrobial activity against methicillin-resistant Staphylococcus aureus clinical isolate incubated for 16 hrs by CLSI based agar dilution method; assay type: functional
Escherichia coli [13] = assay: Antimicrobial activity against Escherichia coli ATCC 700603 incubated for 16 hrs by CLSI-based agar dilution method; assay type: functional; conditions: ATCC 700603, 16 h
[14] = system: Staphylococcus epidermidis; assay: Antimicrobial activity against methicillin-resistant Staphylococcus epidermidis clinical isolate incubated for 16 hrs by CLSI based agar dilution method; assay type: functional
[15] = system: Staphylococcus epidermidis; assay: Antimicrobial activity against methicillin-susceptible Staphylococcus epidermidis clinical isolate incubated for 16 hrs by CLSI based agar dilution method; assay type: functional
Staphylococcus aureus [16] = assay: Antimicrobial activity against methicillin-susceptible Staphylococcus aureus clinical isolate incubated for 16 hrs by CLSI based agar dilution method; assay type: functional
Aspergillus clavatus = assay: Antifungal activity against Aspergillus clavatus after overnight incubation by agar well diffusion method; assay type: functional
PC-3 = assay: Growth inhibition of human PC3 cells by MTT assay; assay type: functional, cell-based

Molecule CCn1cc(C(=O)O)c(=O)c2cc(F)c(Nc3n[nH]c(N)n3)cc21 has an MIC (Escherichia coli [1]) of 150 µg/mL (≈ 451 µM), an MIC (Pseudomonas aeruginosa [2]) greater than 500 µg/mL and an MIC (Staphylococcus aureus [3]) greater than 500 µg/mL. It also gave an MIC (Bacillus subtilis) greater than 500 µg/mL.
In the case of CCn1cc(C(=O)O)c(=O)c2cc(F)c(Cl)cc21, the MIC (Escherichia coli [1]) is reported as 0.355 µg/mL (≈ 1.32 µM), the MIC (Pseudomonas aeruginosa [2]) is reported as 116 µg/mL (≈ 432 µM) and the MIC (Staphylococcus aureus [3]) is reported as 0.535 µg/mL (≈ 1.98 µM). For the same molecule, the MIC (Bacillus subtilis) was 0.125 µg/mL (≈ 0.464 µM).
In the case of CO/N=C1\CCN(c2c(F)cc3c(=O)c(C(=O)O)cn(C4CC4)c3c2OC)CC1NC(=O)CNC(=O)CN (centres undefined), the MIC (Escherichia coli [4]) is reported as 16 µg/mL (≈ 30 µM), the MIC [5] is reported as 64 µg/mL (≈ 120 µM) and the MIC (Pseudomonas aeruginosa [6]) is reported as greater than 128 µg/mL. It also gave an MIC (Staphylococcus aureus [7]) greater than 128 µg/mL and an MIC (Staphylococcus aureus [8]) of 4 µg/mL (≈ 7.51 µM).
Molecule CCn1cc(C(=O)O)c(=O)c2cc(F)c(Nc3ncccn3)cc21 has an MIC (Escherichia coli [1]) of 510 µg/mL (≈ 1550 µM), an MIC (Pseudomonas aeruginosa [2]) greater than 500 µg/mL and an MIC (Staphylococcus aureus [3]) of 515 µg/mL (≈ 1570 µM). For the same molecule, the MIC (Bacillus subtilis) was greater than 500 µg/mL.
For CCn1cc(C(=O)O)c(=O)c2cc(F)c(NNc3n[nH]c(N)n3)c(F)c21, the MIC (Escherichia coli [1]) was 390 µg/mL (≈ 1070 µM), the MIC (Pseudomonas aeruginosa [2]) was greater than 500 µg/mL and the MIC (Staphylococcus aureus [3]) was 240 µg/mL (≈ 657 µM). For the same molecule, the MIC (Bacillus subtilis) was greater than 500 µg/mL.
With CO/N=C1\CCN(c2c(F)cc3c(=O)c(C(=O)O)cn(C4CC4)c3c2OC)CC1NC(=O)[C@H](N)Cc1ccc(O)cc1 (some centres undefined) the MIC (Escherichia coli [4]) was 16 µg/mL (≈ 27.5 µM), the MIC [5] was 64 µg/mL (≈ 110 µM) and the MIC (Pseudomonas aeruginosa [6]) was 128 µg/mL (≈ 220 µM). For the same molecule, the MIC (Staphylococcus aureus [7]) was greater than 128 µg/mL and the MIC (Staphylococcus aureus [8]) was 2 µg/mL (≈ 3.44 µM).
CCn1cc(C(=O)O)c(=O)c2cc(F)c(N3CCNC(C)C3)c(Cl)c21.Cl (centres undefined) was tested, and the MIC (Escherichia coli [9]) was 31.2 µg/mL, the MIC (Staphylococcus aureus [10]) was 2 µg/mL and the MIC (Pseudomonas aeruginosa [11]) was 128 µg/mL.
For COc1c(N2CCN(C[C@H](O)Cn3cc([N+](=O)[O-])nc3C)C(C)C2)c(F)cc2c(=O)c(C(=O)O)cn(C3CC3)c12 (some centres undefined), the MIC (Klebsiella pneumoniae) was 32 µg/mL (≈ 57.3 µM), the MIC (Staphylococcus aureus [12]) was 16 µg/mL (≈ 28.6 µM) and the MIC (Escherichia coli [13]) was 32 µg/mL (≈ 57.3 µM). For the same molecule, the MIC [14] was 32 µg/mL (≈ 57.3 µM), the MIC [15] was 32 µg/mL (≈ 57.3 µM) and the MIC (Staphylococcus aureus [16]) was 32 µg/mL (≈ 57.3 µM).
COc1c(N2C[C@@H]3CCCN(CC(O)Cn4cc([N+](=O)[O-])nc4C)[C@@H]3C2)c(F)cc2c(=O)c(C(=O)O)cn(C3CC3)c12 (some centres undefined) was tested, and the MIC (Klebsiella pneumoniae) was 8 µg/mL (≈ 13.7 µM), the MIC (Staphylococcus aureus [12]) was 8 µg/mL (≈ 13.7 µM) and the MIC (Escherichia coli [13]) was 4 µg/mL (≈ 6.84 µM). For the same molecule, the MIC [14] was 0.125 µg/mL (≈ 0.214 µM), the MIC [15] was 0.25 µg/mL (≈ 0.428 µM) and the MIC (Staphylococcus aureus [16]) was 0.5 µg/mL (≈ 0.855 µM).
For CO/N=C1\CCN(c2c(F)cc3c(=O)c(C(=O)O)cn(C4CC4)c3c2OC)CC1NC(=O)C(C)NC(=O)C(C)N (centres undefined), the MIC (Escherichia coli [4]) was 32 µg/mL (≈ 57.1 µM), the MIC [5] was 64 µg/mL (≈ 114 µM) and the MIC (Pseudomonas aeruginosa [6]) was 128 µg/mL (≈ 228 µM). The MIC (Staphylococcus aureus [7]) was greater than 128 µg/mL and the MIC (Staphylococcus aureus [8]) was 4 µg/mL (≈ 7.14 µM).
CCn1cc(C(=O)O)c(=O)c2cc(F)c(N3CCN(C)CC3)c(Cl)c21 gave an MIC (Escherichia coli [9]) of 2 µg/mL (≈ 5.44 µM), an MIC (Staphylococcus aureus [10]) of 4 µg/mL (≈ 10.9 µM) and an MIC (Pseudomonas aeruginosa [11]) of 1 µg/mL (≈ 2.72 µM).
Molecule CO/N=C1\CCN(c2c(F)cc3c(=O)c(C(=O)O)cn(C4CC4)c3c2OC)CC1NC(=O)[C@H](C)N (some centres undefined) has an MIC (Escherichia coli [4]) of 4 µg/mL (≈ 8.17 µM), an MIC [5] of 32 µg/mL (≈ 65.4 µM) and an MIC (Pseudomonas aeruginosa [6]) of 64 µg/mL (≈ 131 µM). The MIC (Staphylococcus aureus [7]) was 64 µg/mL (≈ 131 µM) and the MIC (Staphylococcus aureus [8]) was 0.125 µg/mL (≈ 0.255 µM).
In the case of CCn1cc(C(=O)O)c(=O)c2cc(F)c(N3CCOCC3)cc21, the MIC (Escherichia coli [9]) is reported as 16 µg/mL (≈ 50 µM), the MIC (Staphylococcus aureus [10]) is reported as 0.32 µg/mL (≈ 0.999 µM) and the MIC (Pseudomonas aeruginosa [11]) is reported as 128 µg/mL (≈ 400 µM).
O=C(O)c1cn(CCF)c2c(F)c(N3CCN(CC(O)Cn4cc([N+](=O)[O-])nc4Cl)CC3)c(F)cc2c1=O (centres undefined) showed an MIC (Klebsiella pneumoniae) greater than 32 µg/mL, an MIC (Staphylococcus aureus [12]) of 32 µg/mL (≈ 57.3 µM) and an MIC (Escherichia coli [13]) greater than 32 µg/mL. It also gave an MIC [14] of 2 µg/mL (≈ 3.58 µM), an MIC [15] of 16 µg/mL (≈ 28.6 µM) and an MIC (Staphylococcus aureus [16]) of 16 µg/mL (≈ 28.6 µM).
Work on COc1c(N2C[C@@H]3CCCN(C[C@H](O)Cn4cc([N+](=O)[O-])nc4C)[C@@H]3C2)c(F)cc2c(=O)c(C(=O)O)cn(C3CC3)c12 yielded an MIC (Klebsiella pneumoniae) of 1 µg/mL (≈ 1.71 µM), an MIC (Staphylococcus aureus [12]) of 2 µg/mL (≈ 3.42 µM) and an MIC (Escherichia coli [13]) of 2 µg/mL (≈ 3.42 µM). It also gave an MIC [14] of 0.03 µg/mL (≈ 0.0513 µM), an MIC [15] of 0.125 µg/mL (≈ 0.214 µM) and an MIC (Staphylococcus aureus [16]) of 0.125 µg/mL (≈ 0.214 µM).
For CO/N=C1\CCN(c2c(F)cc3c(=O)c(C(=O)O)cn(C4CC4)c3c2OC)CC1NC(=O)CN (centres undefined), the MIC (Escherichia coli [4]) was 4 µg/mL (≈ 8.41 µM), the MIC [5] was 32 µg/mL (≈ 67.3 µM) and the MIC (Pseudomonas aeruginosa [6]) was 32 µg/mL (≈ 67.3 µM). It also gave an MIC (Staphylococcus aureus [7]) of 32 µg/mL (≈ 67.3 µM) and an MIC (Staphylococcus aureus [8]) of 0.25 µg/mL (≈ 0.526 µM).
For COc1c(N2CCCC(N(C)CC(O)Cn3cc([N+](=O)[O-])nc3Cl)C2)c(F)cc2c(=O)c(C(=O)O)cn(C3CC3)c12 (centres undefined), the MIC (Klebsiella pneumoniae) was greater than 32 µg/mL, the MIC (Staphylococcus aureus [12]) was 8 µg/mL (≈ 13.5 µM) and the MIC (Escherichia coli [13]) was 4 µg/mL (≈ 6.75 µM). It also gave an MIC [14] of 0.25 µg/mL (≈ 0.422 µM), an MIC [15] of 0.5 µg/mL (≈ 0.843 µM) and an MIC (Staphylococcus aureus [16]) of 0.5 µg/mL (≈ 0.843 µM).
CCn1cc(C(=O)O)c(=O)c2cc(F)c(N3CCN(CC(O)Cn4cc([N+](=O)[O-])nc4Cl)CC3)nc21 (centres undefined) was tested, and the MIC (Klebsiella pneumoniae) was greater than 32 µg/mL, the MIC (Staphylococcus aureus [12]) was 32 µg/mL (≈ 61.1 µM) and the MIC (Escherichia coli [13]) was greater than 32 µg/mL. For the same molecule, the MIC [14] was 4 µg/mL (≈ 7.63 µM), the MIC [15] was 2 µg/mL (≈ 3.82 µM) and the MIC (Staphylococcus aureus [16]) was 16 µg/mL (≈ 30.5 µM).
With CCn1cc(C(=O)O)c(=O)c2cc(F)c(N3CCCC3)c(Cl)c21 the MIC (Escherichia coli [9]) was 16 µg/mL (≈ 47.2 µM), the MIC (Staphylococcus aureus [10]) was less than 0.125 µg/mL and the MIC (Pseudomonas aeruginosa [11]) was 8 µg/mL (≈ 23.6 µM).
In the case of CCn1cc(C(=O)O)c(=O)c2cc(F)c(N3CCCCC3)c(Cl)c21, the MIC (Escherichia coli [9]) is reported as 128 µg/mL (≈ 363 µM), the MIC (Staphylococcus aureus [10]) is reported as 2 µg/mL (≈ 5.67 µM) and the MIC (Pseudomonas aeruginosa [11]) is reported as 128 µg/mL (≈ 363 µM).
Molecule CO/N=C1\CCN(c2c(F)cc3c(=O)c(C(=O)O)cn(C4CC4)c3c2OC)CC1NC(=O)[C@H](N)[C@H](C)O (some centres undefined) has an MIC (Escherichia coli [4]) of 16 µg/mL (≈ 30.8 µM), an MIC [5] of 64 µg/mL (≈ 123 µM) and an MIC (Pseudomonas aeruginosa [6]) of 64 µg/mL (≈ 123 µM). For the same molecule, the MIC (Staphylococcus aureus [7]) was 128 µg/mL (≈ 246 µM) and the MIC (Staphylococcus aureus [8]) was 2 µg/mL (≈ 3.85 µM).
In the case of COc1c(N2CCN(C)CC2)c(F)cc2c(=O)c(C(=O)N/N=C\c3ccccc3)cn(C3CC3)c12, the “inhibition zone (IZ)” value (Aspergillus clavatus) is reported as 11 mm and the IC50 (PC-3) is reported as 16.3 µg/mL (≈ 34.1 µM).

Source: ChEMBL document CHEMBL4602605, “Fluoroquinolones structural and medicinal developments (2013-2018): Where are we now?” (Bioorg Med Chem, 2019)
